Measurements taken from BindingDB's records for patent US20250333410 (Xizang Haisco Pharmaceutical, 2025).
pIC50: −log10 of the molar value.

biological target: Potassium voltage-gated channel subfamily H member 2 (Homo sapiens, UniProt Q12809); experiment: Test for hERG Potassium Ion Channel
Text: Experimental method: in CHO (Chinese Hamster Ovary) cells stably expressing hERG potassium channel, the whole cell patch-clamp technique was used to record hERG potassium channel current at room temperature. The glass microelectrode was made of a glass electrode blank (BF150-86-10, Sutter) by a puller. The tip resistance after filling the liquid in the electrode was about 2-5 MΩ. The glass microelectrode can be connected to the patch-clamp amplifier by inserting the glass microelectrode into an amplifier probe. The clamping voltage and data recording were controlled and recorded by the pClamp 10 software through a computer. The sampling frequency was 10 kHz, and the filtering frequency was 2 kHz. After the whole cell records were obtained, the cells were clamped at −80 mV, and the step voltage that induced the hERG potassium current (IhERG) was depolarized from −80 mV to +20 mV for 2 s, then repolarized to −50 mV, and returned to −80 mV after 1 s. This voltage stimulation was given every 10 s, and the administration process was started after the hERG potassium current was confirmed to be stable (at least 1 minute). The compound was administered for at least 1 minute at each test concentration, and at least 2 cells (n≥2) were tested at each concentration.

Sequence of Potassium voltage-gated channel subfamily H member 2 (Q12809 whole entry): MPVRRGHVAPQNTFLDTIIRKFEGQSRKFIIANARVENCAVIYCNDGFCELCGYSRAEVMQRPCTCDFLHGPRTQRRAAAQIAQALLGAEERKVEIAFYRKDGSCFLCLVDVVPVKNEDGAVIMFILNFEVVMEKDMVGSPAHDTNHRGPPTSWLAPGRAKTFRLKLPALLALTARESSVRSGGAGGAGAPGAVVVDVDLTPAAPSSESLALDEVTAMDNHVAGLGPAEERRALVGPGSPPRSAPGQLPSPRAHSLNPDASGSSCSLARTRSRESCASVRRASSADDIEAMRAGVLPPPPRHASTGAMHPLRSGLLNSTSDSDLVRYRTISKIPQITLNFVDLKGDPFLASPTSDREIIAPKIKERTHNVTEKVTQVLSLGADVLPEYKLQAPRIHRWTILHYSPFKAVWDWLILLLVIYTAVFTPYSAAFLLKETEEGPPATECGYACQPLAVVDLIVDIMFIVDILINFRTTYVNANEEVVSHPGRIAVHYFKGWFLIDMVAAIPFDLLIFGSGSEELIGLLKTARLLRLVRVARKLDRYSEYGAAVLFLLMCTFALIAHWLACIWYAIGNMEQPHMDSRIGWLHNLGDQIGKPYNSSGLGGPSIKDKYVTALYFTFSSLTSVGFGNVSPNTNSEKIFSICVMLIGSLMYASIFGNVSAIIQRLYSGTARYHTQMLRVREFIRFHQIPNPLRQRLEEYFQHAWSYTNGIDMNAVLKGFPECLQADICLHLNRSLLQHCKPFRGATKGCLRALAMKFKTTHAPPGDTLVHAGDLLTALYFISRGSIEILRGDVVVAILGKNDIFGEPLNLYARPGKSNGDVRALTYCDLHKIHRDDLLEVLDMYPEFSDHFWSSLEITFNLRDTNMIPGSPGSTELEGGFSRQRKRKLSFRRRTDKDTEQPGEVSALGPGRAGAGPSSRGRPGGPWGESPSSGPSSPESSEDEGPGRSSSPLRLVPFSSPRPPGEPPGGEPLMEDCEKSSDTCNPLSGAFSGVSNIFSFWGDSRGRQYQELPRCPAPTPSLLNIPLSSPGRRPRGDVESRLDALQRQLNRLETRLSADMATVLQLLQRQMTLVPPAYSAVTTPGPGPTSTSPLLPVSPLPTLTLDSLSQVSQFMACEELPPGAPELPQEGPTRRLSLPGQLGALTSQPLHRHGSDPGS

Q: How did the pIC50 turn out when `CC(=O)COc1cc2cc(Nc3nc(N4CCC(N5CCN(c6c(F)cc(C7CCC(=O)NC7=O)cc6F)CC5)C(F)(F)C4)ncc3Cl)ccc2n(C)c1=O` (stereo unspecified) [US20250333410, Compound 76] was run?
A: < 4.40

Q: With `CNC(=O)COc1cc2cc(Nc3nc(N4CCC(N5CCN(c6cccc7c6n(C)c(=O)n7C6CCC(=O)NC6=O)CC5)C(F)(F)C4)ncc3Cl)ccc2n(C)c1=O` (stereo unspecified) [US20250333410, Compound 77] as the molecule, how does the pIC50 read?
A: < 4.40

Q: With `CNC(=O)COc1cc2cc(Nc3nc(N4CCC(CN5CCC(c6cccc7c6n(C)c(=O)n7C6CCC(=O)NC6=O)CC5)CC4)ncc3Cl)ccc2n(C)c1=O` (stereo unspecified) [US20250333410, Compound 35] as the molecule, how does the pIC50 read?
A: < 4.52

Q: `CNC(=O)COc1cc2cc(Nc3nc(N4CCN(CC5CC6(CCN(c7scc8c7C(=O)N(C7CCC(=O)NC7=O)C8=O)CC6)C5)CC4)ncc3Cl)ccc2n(C)c1=O` (stereo unspecified) [US20250333410, Compound 67] was tested. Which pIC50 did it give?
A: < 4.40

Q: How did the pIC50 turn out when `CNC(=O)COc1cc2cc(Nc3nc(N4CCN(CC5CCN(c6ccc7c8c(oc7c6)C(=O)N(C6CCC(=O)NC6=O)C8)CC5)CC4)ncc3Cl)ccc2n(C)c1=O` (stereo unspecified) [US20250333410, Compound 46] was run?
A: < 4.52

Q: `CNC(=O)COc1cc2cc(Nc3nc(N4CC[C@H](N5CCN(c6ccc(N[C@@H]7CCC(=O)NC7=O)cc6F)CC5)C(F)(F)C4)ncc3Cl)ccc2n(C)c1=O` [US20250333410, Compound 73] was tested. Which pIC50 did it give?
A: < 4.40

Q: `CNC(=O)COc1cc2cc(Nc3nc(N4CCC(CN5CCC(C6CCN(c7cccc8c(C9CCC(=O)NC9=O)nn(C)c78)CC6)CC5)CC4)ncc3Cl)ccc2n(C)c1=O` (stereo unspecified) [US20250333410, Compound 8] was tested. Which pIC50 did it give?
A: < 4.40

Q: How did the pIC50 turn out when `CNC(=O)COc1cc2cc(Nc3nc(N4CC[C@@H](N5CCN(c6ccc(N[C@@H]7CCC(=O)NC7=O)cc6F)CC5)C(F)(F)C4)ncc3Cl)ccc2n(C)c1=O` [US20250333410, Compound 72] was run?
A: < 4.40

Q: `CNC(=O)COc1cc2cc(Nc3nc(N4CCC(N5CCN(c6ccc(NC7CCC(=O)NC7=O)cc6F)CC5)C(F)(F)C4)ncc3Cl)ccc2n(C)c1=O` (stereo unspecified) [US20250333410, Compound 71] was tested. Which pIC50 did it give?
A: < 4.40

Q: `CCC(=O)COc1cc2cc(Nc3nc(N4CCC(N5CCN(c6cccc7c(C8CCC(=O)NC8=O)nn(C)c67)CC5)C(F)(F)C4)ncc3Cl)ccc2n(C)c1=O` (stereo unspecified) [US20250333410, Compound 78] was tested. Which pIC50 did it give?
A: < 4.40

Q: With `CC(=O)COc1cc2cc(Nc3nc(N4CC[C@@H](N5CCN(c6ccc(N[C@H]7CCC(=O)NC7=O)cc6F)CC5)C(F)(F)C4)ncc3Cl)ccc2n(C)c1=O` [US20250333410, Compound 75] as the molecule, how does the pIC50 read?
A: < 4.40
